In ChEMBL document CHEMBL4507267 (2021):

Columns and labels:
[1] = molecular target: Mitogen-activated protein kinase kinase kinase 2 (Homo sapiens) (UniProt Q9Y2U5); settings: Compound concentration 1000.0 nM
[2] = molecular target: SNF-related serine/threonine-protein kinase (Homo sapiens) (UniProt Q9NRH2); settings: Compound concentration 1000.0 nM
[3] = molecular target: Macrophage-stimulating protein receptor (Homo sapiens) (UniProt Q04912); settings: Compound concentration 1000.0 nM
[4] = molecular target: Sodium-dependent dopamine transporter (Homo sapiens) (UniProt Q01959); settings: Compound concentration 10.0 uM
[5] = molecular target: Beta-2 adrenergic receptor (Homo sapiens) (UniProt P07550); settings: Compound concentration 10.0 uM
[6] = molecular target: 3-phosphoinositide-dependent protein kinase 1 (Homo sapiens) (UniProt O15530); settings: Compound concentration 1000.0 nM
Chain of 3-phosphoinositide-dependent protein kinase 1 (Homo sapiens) (O15530 whole entry): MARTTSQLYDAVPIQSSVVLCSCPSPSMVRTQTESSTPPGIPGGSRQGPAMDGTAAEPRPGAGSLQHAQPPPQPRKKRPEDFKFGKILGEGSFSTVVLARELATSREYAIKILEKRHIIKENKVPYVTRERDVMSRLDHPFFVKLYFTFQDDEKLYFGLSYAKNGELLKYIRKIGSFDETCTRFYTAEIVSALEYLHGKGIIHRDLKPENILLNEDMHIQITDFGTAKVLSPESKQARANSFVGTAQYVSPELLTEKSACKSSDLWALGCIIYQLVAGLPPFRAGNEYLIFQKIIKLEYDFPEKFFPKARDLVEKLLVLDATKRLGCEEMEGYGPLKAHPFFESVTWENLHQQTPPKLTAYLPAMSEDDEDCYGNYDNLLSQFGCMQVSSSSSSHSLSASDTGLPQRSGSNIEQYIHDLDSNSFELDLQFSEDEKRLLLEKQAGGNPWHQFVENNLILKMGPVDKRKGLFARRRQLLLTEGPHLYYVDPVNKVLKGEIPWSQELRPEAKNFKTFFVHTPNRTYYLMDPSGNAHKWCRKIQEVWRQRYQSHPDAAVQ

[7] = molecular target: Myotonin-protein kinase (Homo sapiens) (UniProt Q09013); settings: Compound concentration 1000.0 nM
[8] = molecular target: Serine/threonine-protein kinase 25 (Homo sapiens) (UniProt O00506); settings: Compound concentration 1000.0 nM
[9] = molecular target: Sigma non-opioid intracellular receptor 1 (Homo sapiens) (UniProt Q99720); settings: Compound concentration 10.0 uM
Chain of Sigma non-opioid intracellular receptor 1 (Homo sapiens) (Q99720 whole entry): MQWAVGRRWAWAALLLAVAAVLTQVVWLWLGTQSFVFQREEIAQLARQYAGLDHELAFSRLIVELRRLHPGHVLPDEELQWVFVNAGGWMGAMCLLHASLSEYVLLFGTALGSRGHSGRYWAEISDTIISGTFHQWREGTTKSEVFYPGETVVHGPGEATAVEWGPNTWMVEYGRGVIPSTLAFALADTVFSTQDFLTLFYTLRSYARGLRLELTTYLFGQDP

[10] = molecular target: Insulin-like growth factor 1 receptor (Homo sapiens) (UniProt P08069); settings: Compound concentration 1000.0 nM
[11] = molecular target: Cyclin-dependent kinase 2 homolog (Plasmodium falciparum (isolate 3D7)) (UniProt P61075); settings: Compound concentration 1000.0 nM
[12] = molecular target: 5-hydroxytryptamine receptor 6 (Homo sapiens) (UniProt P50406); settings: Compound concentration 10.0 uM
[13] = molecular target: Tyrosine-protein kinase receptor Tie-1 (Homo sapiens) (UniProt P35590); settings: Compound concentration 1000.0 nM
Chain of Tyrosine-protein kinase receptor Tie-1 (Homo sapiens) (P35590 whole entry): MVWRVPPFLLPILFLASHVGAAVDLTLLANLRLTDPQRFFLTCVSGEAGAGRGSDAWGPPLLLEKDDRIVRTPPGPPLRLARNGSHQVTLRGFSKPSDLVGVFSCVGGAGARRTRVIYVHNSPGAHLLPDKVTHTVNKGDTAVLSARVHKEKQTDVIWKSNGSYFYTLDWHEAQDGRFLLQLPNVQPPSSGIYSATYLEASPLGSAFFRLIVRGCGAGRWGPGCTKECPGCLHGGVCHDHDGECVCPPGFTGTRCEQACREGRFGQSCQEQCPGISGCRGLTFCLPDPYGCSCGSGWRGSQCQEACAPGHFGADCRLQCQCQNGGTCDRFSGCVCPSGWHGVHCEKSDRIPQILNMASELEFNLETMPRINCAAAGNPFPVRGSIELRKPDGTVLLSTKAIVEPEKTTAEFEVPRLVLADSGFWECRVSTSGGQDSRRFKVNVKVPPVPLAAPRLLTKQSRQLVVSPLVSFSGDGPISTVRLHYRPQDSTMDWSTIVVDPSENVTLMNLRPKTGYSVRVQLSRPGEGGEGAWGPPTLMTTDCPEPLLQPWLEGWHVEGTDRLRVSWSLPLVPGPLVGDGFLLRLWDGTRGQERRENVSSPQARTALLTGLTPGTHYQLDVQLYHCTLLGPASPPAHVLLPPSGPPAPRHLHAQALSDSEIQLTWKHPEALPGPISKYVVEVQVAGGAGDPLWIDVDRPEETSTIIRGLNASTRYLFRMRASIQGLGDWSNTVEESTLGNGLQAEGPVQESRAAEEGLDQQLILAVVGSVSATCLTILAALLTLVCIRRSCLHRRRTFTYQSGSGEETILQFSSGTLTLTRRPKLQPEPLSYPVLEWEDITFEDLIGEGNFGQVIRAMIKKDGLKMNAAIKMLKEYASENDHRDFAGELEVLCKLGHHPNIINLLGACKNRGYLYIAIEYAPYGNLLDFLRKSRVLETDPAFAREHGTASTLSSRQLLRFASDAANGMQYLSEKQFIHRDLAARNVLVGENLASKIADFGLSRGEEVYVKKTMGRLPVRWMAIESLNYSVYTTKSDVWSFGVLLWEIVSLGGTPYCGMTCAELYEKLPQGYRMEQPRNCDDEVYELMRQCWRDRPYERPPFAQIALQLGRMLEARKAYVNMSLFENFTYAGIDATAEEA

[14] = molecular target: Mitogen-activated protein kinase 4 (Homo sapiens) (UniProt P31152); settings: Compound concentration 1000.0 nM
[15] = molecular target: Proto-oncogene tyrosine-protein kinase receptor Ret (Homo sapiens) (UniProt P07949); settings: Compound concentration 1000.0 nM
[16] = system: Phosphatidylinositol 4,5-bisphosphate 3-kinase catalytic subunit alpha isoform (Homo sapiens), P42336 [H1047Y]; settings: Compound concentration 1000.0 nM
[17] = molecular target: Tyrosine-protein kinase JAK2 (Homo sapiens) (UniProt O60674); settings: Compound concentration 1000.0 nM
Chain of Tyrosine-protein kinase JAK2 (Homo sapiens) (O60674 whole entry): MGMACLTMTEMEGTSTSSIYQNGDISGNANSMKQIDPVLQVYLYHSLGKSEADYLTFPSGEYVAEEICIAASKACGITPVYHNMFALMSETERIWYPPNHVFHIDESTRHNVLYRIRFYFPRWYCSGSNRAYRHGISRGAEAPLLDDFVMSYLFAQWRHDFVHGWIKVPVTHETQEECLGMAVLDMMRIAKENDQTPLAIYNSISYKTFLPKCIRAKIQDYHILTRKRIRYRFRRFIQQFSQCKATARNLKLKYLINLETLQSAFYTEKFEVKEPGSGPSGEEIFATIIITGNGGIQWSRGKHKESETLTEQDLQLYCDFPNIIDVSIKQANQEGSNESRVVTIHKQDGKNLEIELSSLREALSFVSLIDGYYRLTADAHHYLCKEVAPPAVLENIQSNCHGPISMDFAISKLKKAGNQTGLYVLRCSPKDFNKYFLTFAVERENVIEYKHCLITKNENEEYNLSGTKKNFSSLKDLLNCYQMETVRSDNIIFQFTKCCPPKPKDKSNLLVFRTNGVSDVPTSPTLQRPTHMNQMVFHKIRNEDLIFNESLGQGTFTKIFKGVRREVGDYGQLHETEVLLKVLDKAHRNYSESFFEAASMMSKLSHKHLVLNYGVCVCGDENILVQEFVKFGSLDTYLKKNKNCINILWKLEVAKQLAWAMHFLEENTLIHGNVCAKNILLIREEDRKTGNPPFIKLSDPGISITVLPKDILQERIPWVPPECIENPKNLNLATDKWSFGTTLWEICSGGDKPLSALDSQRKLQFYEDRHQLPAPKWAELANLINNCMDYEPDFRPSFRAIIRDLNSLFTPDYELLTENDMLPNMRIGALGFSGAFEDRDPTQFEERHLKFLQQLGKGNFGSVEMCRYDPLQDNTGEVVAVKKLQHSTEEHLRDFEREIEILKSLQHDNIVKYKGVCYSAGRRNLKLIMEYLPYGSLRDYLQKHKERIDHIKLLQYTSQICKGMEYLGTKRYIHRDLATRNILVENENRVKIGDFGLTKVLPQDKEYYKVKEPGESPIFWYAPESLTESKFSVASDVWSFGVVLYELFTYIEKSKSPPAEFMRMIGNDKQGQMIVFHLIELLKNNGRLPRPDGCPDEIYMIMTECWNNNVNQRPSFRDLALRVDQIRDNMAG

[18] = molecular target: Wee1-like protein kinase (Homo sapiens) (UniProt P30291); settings: Compound concentration 1000.0 nM
[19] = system: Receptor-type tyrosine-protein kinase FLT3 (Homo sapiens), P36888 [UNDEFINED MUTATION]; settings: Compound concentration 1000.0 nM
[20] = molecular target: Interleukin-1 receptor-associated kinase 3 (Homo sapiens) (UniProt Q9Y616); settings: Compound concentration 1000.0 nM
Chain of Interleukin-1 receptor-associated kinase 3 (Homo sapiens) (Q9Y616 whole entry): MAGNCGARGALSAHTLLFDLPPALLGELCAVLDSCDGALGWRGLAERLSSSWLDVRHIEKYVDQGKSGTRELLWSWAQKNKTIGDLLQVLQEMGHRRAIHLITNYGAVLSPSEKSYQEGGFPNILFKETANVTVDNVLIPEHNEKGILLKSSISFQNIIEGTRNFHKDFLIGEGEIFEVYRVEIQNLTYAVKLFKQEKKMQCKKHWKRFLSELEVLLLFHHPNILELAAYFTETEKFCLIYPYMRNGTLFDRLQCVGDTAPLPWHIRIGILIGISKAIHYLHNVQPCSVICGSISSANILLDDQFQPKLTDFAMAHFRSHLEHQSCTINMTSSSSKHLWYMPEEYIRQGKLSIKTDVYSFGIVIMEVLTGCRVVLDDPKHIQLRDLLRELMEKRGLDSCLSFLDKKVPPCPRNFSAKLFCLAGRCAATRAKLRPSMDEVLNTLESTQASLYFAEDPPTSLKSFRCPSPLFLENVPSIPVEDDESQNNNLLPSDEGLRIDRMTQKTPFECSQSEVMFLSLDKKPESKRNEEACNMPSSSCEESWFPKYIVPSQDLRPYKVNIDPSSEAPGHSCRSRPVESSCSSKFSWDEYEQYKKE

[21] = molecular target: Mitogen-activated protein kinase 13 (Homo sapiens) (UniProt O15264); settings: Compound concentration 1000.0 nM
Chain of Mitogen-activated protein kinase 13 (Homo sapiens) (O15264 whole entry): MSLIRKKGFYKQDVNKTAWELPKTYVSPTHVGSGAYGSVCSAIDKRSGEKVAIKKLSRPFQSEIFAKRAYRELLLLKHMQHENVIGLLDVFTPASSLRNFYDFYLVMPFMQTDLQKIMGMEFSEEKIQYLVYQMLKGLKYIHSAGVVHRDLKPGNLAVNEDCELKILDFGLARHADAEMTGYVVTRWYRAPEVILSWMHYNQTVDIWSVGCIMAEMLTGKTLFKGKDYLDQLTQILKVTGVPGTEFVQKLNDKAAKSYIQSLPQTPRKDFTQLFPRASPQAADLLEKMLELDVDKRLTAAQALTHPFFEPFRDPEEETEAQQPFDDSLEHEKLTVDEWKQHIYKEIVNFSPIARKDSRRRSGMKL

[22] = system: Mast/stem cell growth factor receptor Kit (Homo sapiens), P10721 [V559D]; settings: Compound concentration 1000.0 nM
[23] = molecular target: Dual specificity mitogen-activated protein kinase kinase 2 (Homo sapiens) (UniProt P36507); settings: Compound concentration 1000.0 nM
[24] = molecular target: Alpha-2B adrenergic receptor (Homo sapiens) (UniProt P18089); settings: Compound concentration 10.0 uM
[25] = molecular target: Casein kinase I isoform alpha-like (Homo sapiens) (UniProt Q8N752); settings: Compound concentration 1000.0 nM
[26] = system: Phosphatidylinositol 4,5-bisphosphate 3-kinase catalytic subunit alpha isoform (Homo sapiens), P42336 [C420R]; settings: Compound concentration 1000.0 nM
[27] = molecular target: Ephrin type-B receptor 2 (Homo sapiens) (UniProt P29323); settings: Compound concentration 1000.0 nM
[28] = system: Tyrosine-protein kinase ABL1 (Homo sapiens), P00519 [F317L]; settings: Compound concentration 1000.0 nM
[29] = molecular target: Phosphatidylinositol 4,5-bisphosphate 3-kinase catalytic subunit gamma isoform (Homo sapiens) (UniProt P48736); settings: Compound concentration 1000.0 nM
[30] = molecular target: Ankyrin repeat and protein kinase domain-containing protein 1 (Homo sapiens) (UniProt Q8NFD2); settings: Compound concentration 1000.0 nM
[31] = system: Epidermal growth factor receptor (Homo sapiens), P00533 [T790M]; settings: Compound concentration 1000.0 nM
[32] = system: Proto-oncogene tyrosine-protein kinase receptor Ret (Homo sapiens), P07949 [V804M]; settings: Compound concentration 1000.0 nM
[33] = system: Receptor-type tyrosine-protein kinase FLT3 (Homo sapiens), P36888 [D835Y]; settings: Compound concentration 1000.0 nM
[34] = molecular target: SRSF protein kinase 3 (Homo sapiens) (UniProt Q9UPE1); settings: Compound concentration 1000.0 nM
[35] = molecular target: Protein kinase C eta type (Homo sapiens) (UniProt P24723); settings: Compound concentration 1000.0 nM
[36] = molecular target: Calcium/calmodulin-dependent protein kinase kinase 1 (Homo sapiens) (UniProt Q8N5S9); settings: Compound concentration 1000.0 nM
[37] = system: Receptor-type tyrosine-protein kinase FLT3 (Homo sapiens), P36888 [D835V]; settings: Compound concentration 1000.0 nM
[38] = molecular target: Alpha-2A adrenergic receptor (Homo sapiens) (UniProt P08913); settings: Compound concentration 10.0 uM
[39] = molecular target: Testis-specific serine/threonine-protein kinase 1 (Homo sapiens) (UniProt Q9BXA7); settings: Compound concentration 1000.0 nM
[40] = molecular target: 5'-AMP-activated protein kinase catalytic subunit alpha-2 (Homo sapiens) (UniProt P54646); settings: Compound concentration 1000.0 nM
Chain of 5'-AMP-activated protein kinase catalytic subunit alpha-2 (Homo sapiens) (P54646 whole entry, looked up): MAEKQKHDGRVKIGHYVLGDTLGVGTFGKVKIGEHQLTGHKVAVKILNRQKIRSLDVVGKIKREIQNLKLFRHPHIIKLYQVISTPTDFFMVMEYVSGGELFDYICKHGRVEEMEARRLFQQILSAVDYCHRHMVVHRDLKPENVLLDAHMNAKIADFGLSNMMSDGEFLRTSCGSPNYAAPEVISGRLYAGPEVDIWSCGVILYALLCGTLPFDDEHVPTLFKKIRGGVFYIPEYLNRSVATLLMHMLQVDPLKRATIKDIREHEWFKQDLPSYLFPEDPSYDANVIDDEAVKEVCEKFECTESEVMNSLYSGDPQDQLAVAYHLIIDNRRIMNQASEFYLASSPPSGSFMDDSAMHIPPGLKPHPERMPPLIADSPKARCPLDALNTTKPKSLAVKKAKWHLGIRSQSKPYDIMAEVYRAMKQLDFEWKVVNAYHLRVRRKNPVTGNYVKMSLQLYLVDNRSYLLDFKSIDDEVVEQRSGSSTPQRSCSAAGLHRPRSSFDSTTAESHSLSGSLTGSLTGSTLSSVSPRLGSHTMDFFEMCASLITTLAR

[41] = molecular target: Mitogen-activated protein kinase kinase kinase 12 (Homo sapiens) (UniProt Q12852); settings: Compound concentration 1000.0 nM
[42] = molecular target: Serine/threonine-protein kinase PAK 5 (Homo sapiens) (UniProt Q9P286); settings: Compound concentration 1000.0 nM
[43] = molecular target: MAP kinase-interacting serine/threonine-protein kinase 1 (Homo sapiens) (UniProt Q9BUB5); settings: Compound concentration 1000.0 nM
Chain of MAP kinase-interacting serine/threonine-protein kinase 1 (Homo sapiens) (Q9BUB5 whole entry, looked up): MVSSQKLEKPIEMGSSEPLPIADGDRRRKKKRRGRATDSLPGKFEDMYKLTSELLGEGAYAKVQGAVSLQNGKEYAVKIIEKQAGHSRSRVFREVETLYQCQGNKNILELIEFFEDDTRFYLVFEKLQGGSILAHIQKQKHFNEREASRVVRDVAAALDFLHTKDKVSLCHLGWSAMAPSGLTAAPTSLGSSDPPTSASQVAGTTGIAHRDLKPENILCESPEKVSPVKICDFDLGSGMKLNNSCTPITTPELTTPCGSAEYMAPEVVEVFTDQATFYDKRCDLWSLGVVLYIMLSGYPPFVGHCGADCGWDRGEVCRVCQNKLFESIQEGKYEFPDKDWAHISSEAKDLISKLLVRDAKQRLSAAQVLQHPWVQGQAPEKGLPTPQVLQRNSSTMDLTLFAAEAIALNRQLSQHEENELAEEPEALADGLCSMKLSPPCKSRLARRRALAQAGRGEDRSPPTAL

[44] = molecular target: Rhodopsin kinase GRK1 (Homo sapiens) (UniProt Q15835); settings: Compound concentration 1000.0 nM

## Cc1c(NC(=O)c2cc(C(N)=O)nc3cc(F)ccc23)c(C(F)(F)F)nn1Cc1ccc(C#N)cc1 [BAY-876]
[1]
  residual activity: 85%
[2]
  residual activity: 90%
[3]
  residual activity: 76%
[4]
  inhibition: 8.22%
[5]
  inhibition: 21.7%
[6]
  residual activity: 73%
[7]
  residual activity: 92%
[8]
  residual activity: 100%
[9]
  inhibition: -2.5%
[10]
  residual activity: 100%
[11]
  residual activity: 91%
[12]
  inhibition: -0.383%
[13]
  residual activity: 81%
[14]
  residual activity: 76%
[15]
  residual activity: 94%
[16]
  residual activity: 86%
[17]
  residual activity: 75%
[18]
  residual activity: 94%
[19]
  residual activity: 68%
[20]
  residual activity: 94%
[21]
  residual activity: 70%
[22]
  residual activity: 100%
[23]
  residual activity: 89%
[24]
  inhibition: 7.66%
[25]
  residual activity: 100%
[26]
  residual activity: 70%
[27]
  residual activity: 100%
[28]
  residual activity: 88%
[29]
  residual activity: 80%
[30]
  residual activity: 80%
[31]
  residual activity: 100%
[32]
  residual activity: 100%
[33]
  residual activity: 92%
[34]
  residual activity: 100%
[35]
  residual activity: 95%
[36]
  residual activity: 97%
[37]
  residual activity: 100%
[38]
  inhibition: 0.0425%
[39]
  residual activity: 95%
[40]
  residual activity: 100%
[41]
  residual activity: 89%
[42]
  residual activity: 92%
[43]
  residual activity: 68%
[44]
  residual activity: 87%

## Cc1c(NC(=O)c2cc(C(N)=O)nc3cc(F)ccc23)c(C(F)(F)F)nn1Cc1ccc(C(C)(C)C)cc1 [BAY-588]
[1]
  residual activity: 100%
[2]
  residual activity: 93%
[3]
  residual activity: 80%
[4]
  inhibition: 14.7%
[5]
  inhibition: 24.1%
[6]
  residual activity: 94%
[7]
  residual activity: 100%
[8]
  residual activity: 100%
[9]
  inhibition: 6.28%
[10]
  residual activity: 100%
[11]
  residual activity: 100%
[12]
  inhibition: -0.431%
[13]
  residual activity: 100%
[14]
  residual activity: 100%
[15]
  residual activity: 100%
[16]
  residual activity: 89%
[17]
  residual activity: 100%
[18]
  residual activity: 100%
[19]
  residual activity: 100%
[20]
  residual activity: 100%
[21]
  residual activity: 49%
[22]
  residual activity: 95%
[23]
  residual activity: 100%
[24]
  inhibition: 15.6%
[25]
  residual activity: 93%
[26]
  residual activity: 100%
[27]
  residual activity: 83%
[28]
  residual activity: 100%
[29]
  residual activity: 100%
[30]
  residual activity: 100%
[31]
  residual activity: 100%
[32]
  residual activity: 100%
[33]
  residual activity: 100%
[34]
  residual activity: 100%
[35]
  residual activity: 97%
[36]
  residual activity: 98%
[37]
  residual activity: 100%
[38]
  inhibition: 23.1%
[39]
  residual activity: 100%
[40]
  residual activity: 100%
[41]
  residual activity: 100%
[42]
  residual activity: 100%
[43]
  residual activity: 100%
[44]
  residual activity: 83%
